We go through 1 molecule from patent US4692517A, “C-3' acylaminooxy-7-[(2-aminothiazol-4-yl)-α-(substituted-oximino)acety l]cephalosporin derivatives” (American Home Products Corporation, priority 1986, dated 1987).

≈ marks a conversion by molar mass, not a printed value.

What all share (assay type): cell-based
The test system of test [1] is Pseudomonas aeruginosa ATCC 27853. Briefly: Agar dilution MIC, Pseudomonas aeruginosa ATCC 27853. Particulars: ATCC27853, 18 hours at 35° C., read-out: Minimal Inhibitory Concentration (MIC). As for the experimental part: (§1) The compounds of the invention are tested for their antibacterial activity. The test is carried out as follows:
(§2) The organisms used in the test comprise the following:
(§3) Staphylococcus aureus (penicillin-sensitive and resistant), Pseudomonas aeruginosa, Escherichia coli, […] pneumoniae, Bordetella bronchiseptica, Proteus vulgaris, P. mirabilis, Acinetobacter calcoaceticus.
(§4) Test organisms may be added or deleted in order to reflect current clinical patterns of antibiotic susceptibility or shifts in pathogenic potential.
(§5) Organisms are normally grown for 18 hours in Brain Heart Infusion at 35° C. Cultures are adjusted with saline to MacFarland No. 1.5 standard prior to use.
(§6) Stock concentrations (e.g. 2,500 μg or units per ml) are prepared in a suitable vehicle. Two-fold dilutions are made. One ml quantities of each dilution are incorporated in 9 ml of the appropriate agar (e.g. Seed) in sterile Petri plates. The hardened surface is inoculated with test organisms by use of a Steers replicating device. The plates are incubated (e.g. 18 hours at 35° C.) and activity is determined.

Test [2] concerns Klebsiella pneunomiae KL-1. Briefly: Agar dilution MIC, Klebsiella pneunomiae KL-1. Particulars: KL1, 18 hours at 35° C., read-out: Minimal Inhibitory Concentration (MIC). As for the experimental part:
as §1, §2, §3, §4, §5, §6
On the technique in general: In agar dilution, organisms are placed on agar that contains the substance at set levels.

In test [3] the test system is Escherichia coli ATCC 25922. The test is described as follows: Agar dilution MIC, Escherichia coli ATCC 25922. The settings on record: ATCC25922, 18 hours at 35° C., read-out: Minimal Inhibitory Concentration (MIC). How it is done:
as §1, §2, §3, §4, §5, §6

The test system of test [4] is Serratia marcescens ATCC 13880. The test is described as follows: Agar dilution MIC, Serratia marcescens ATCC 13880. The settings on record: ATCC13880, 18 hours at 35° C., read-out: Minimal Inhibitory Concentration (MIC). How it is done: as §1, §2, §3, §4, §5, §6
Test [5] deals with Proteus vulgaris A 84354 1. The test is described as follows: Agar dilution MIC, Proteus vulgaris A 84354 1. The settings on record: A843541, 18 hours at 35° C., read-out: Minimal Inhibitory Concentration (MIC). As for the experimental part:
as §1, §2, §3, §4, §5, §6

In test [6] the test system is Enterobacter cloacae ATCC 13047. Briefly: Agar dilution MIC, Enterobacter cloacae ATCC 13047. The settings on record: ATCC13047, 18 hours at 35° C., read-out: Minimal Inhibitory Concentration (MIC). How it is done:
as §1, §2, §3, §4, §5, §6

For test [7], the system named is Staphylococcus aureus ATCC 29213. The test is described as follows: Agar dilution MIC, Staphylococcus aureus ATCC 29213. The settings on record: ATCC29213, 18 hours at 35° C., read-out: Minimal Inhibitory Concentration (MIC). How it is done:
as §1, §2, §3, §4, §5, §6

In test [8] the test system is Streptococcus faecalis ATCC 29212. The test is described as follows: Agar dilution MIC, Streptococcus faecalis ATCC 29212. The settings on record: Enterococcus faecalis, ATCC29212, 18 hours at 35° C., read-out: Minimal Inhibitory Concentration (MIC). As for the experimental part: as §1, §2, §3, §4, §5, §6

For the molecule `CO/N=C(\C(=O)N[C@@H]1C(=O)N2C(C(=O)OC(C)(C)C)=C(CONC(=O)OC(C)(C)C)CS[C@H]12)c1csc(N)n1` [Example 1B, (6R,7R)-7-[[(Z)-(2-amino-4-thiazolyl)(methoxyimino)acetyl]amino]-3-[[[[(1,1-dimethylethoxy)carbonyl]amino]oxy]methyl]-8-oxo-5-thia-1-azabicyclo[4.2.0]oct-2-ene-2-carboxylic acid 1,1-dimethylethyl ester], the MIC in test [1] stood at 128 µg/mL (≈ 219 µM); in test [2] it was 1 µg/mL (≈ 1.71 µM); in test [3] it was 4 µg/mL (≈ 6.84 µM); in test [4], 16 µg/mL (≈ 27.4 µM); in test [5], 1 µg/mL (≈ 1.71 µM); in test [6], 32 µg/mL (≈ 54.7 µM). The values for the MIC in test [7] and in test [8] were 64 µg/mL (≈ 109 µM) and 128 µg/mL (≈ 219 µM), respectively.
